# Results taken from article PMC9913425, “Pentacyclic Triterpenoids-Based Ionic Compounds: Synthesis, Study of Structure–Antitumor Activity Relationship, Effects on Mitochondria and Activation of Signaling Pathways of Proliferation, Genome Reparation and Early Apoptosis” (Cancers, 2023).
# Structures can show the parent of a compound that is named as a salt.
# Legend:
# [1] = system: Jurkat cells; assay: Apoptosis/necrosis induction (Annexin V Alexa Fluor488, 7AAD staining); assay type: cell-based; conditions: compound at IC50 concentration, incubation 2 h
# Source text: Multiparametric evaluation of marker molecules, along with the detection of damage to the mitochondrial membrane, makes it possible to clearly determine the type of cell death. The method of cell staining with three different dyes (Annexin V Alexa Fluor488, 7AAD and MitoSense Red) provides simultaneous specification of various aspects of the state of the cell membrane, the state of DNA and the viability of mitochondria; together, it is a reliable sign of intrinsic and mitochondrial apoptosis pathway. Normal cells with intact mitochondrial membranes have high MitoSense Red fluorescence, while cells with decoupled oxidation and phosphorylation have much lower fluorescence. […]
# Figure 1 The ratio of the level of mito-damage and the level of apoptosis in Jurkat cells of ionic compounds based on ursolic, oleanolic and betulinic acids.
# [2] = system: mitochondria of Jurkat tumor cells; assay: Mitochondrial damage (MitoSense Red staining); assay type: cell-based; conditions: compound at IC50 concentration, incubation 2 h
# [3] = system: HEK293; assay: In vitro cytotoxicity, IC50 by flow cytometry (Guava ViaCount); assay type: cell-based; conditions: conditionally normal
# Protocol: (§1) Human cancer cell line HeLa, HL60, A2780 was obtained from the HPA Culture Collections (Salisbury, UK). Cells (Jurkat, K562, U937, Hek293, Fibroblasts) were purchased from Russian Cell Culture Collection (Institute of Cytology of the Russian Academy of Sciences, […], Russia) and cultured according to standard protocols and sterile technique. […] Cells were maintained in RPMI 1640 (Jurkat, K562, U937, HL60) (Gibco, Billings, MT, USA) supplemented with […], 10% FBS (Sigma) and 100 units/mL penicillin–streptomycin (Sigma). All types of cells were grown in an atmosphere of 5% CO2 at 37 °C. The cells were subcultured at 2–3 days intervals. Cells were then seeded in 24-well plates at 5 × 10^4 cells per well and incubated overnight. Jurkat, K562, U937, HL60 cells were subcultured at 2-day intervals with a seeding density of 1 × 10^5 cells per 24-well plates in RPMI with 10% FBS.
# (§2) The antitumor activity of the synthesized ionic compounds was initially assessed in vitro on Jurkat, K562, U937, HL60, HEK293, A2780 cell lines, including the determination of IC50 by flow cytometry involving Guava ViaCount (Millipore) reagent kits.
# [4] = system: K562; assay: as above; assay type: cell-based
# Protocol: as §1, §2
# [5] = system: U937; assay: as above; assay type: cell-based
# Protocol: as §1, §2
# [6] = system: Jurkat; assay: as above; assay type: cell-based; conditions: Jurkat cells
# Protocol: as §1, §2
# [7] = system: HL60; assay: as above; assay type: cell-based, human
# Protocol: as §1, §2
# [8] = system: A2780; assay: as above; assay type: cell-based, human
# Protocol: as §1, §2
# [9] = system: Chk2; assay: Luminex xMAP DNA Damage/Genotoxicity panel, phosphorylated Chk2; assay type: cell-based; conditions: Jurkat cells; 12a 0.006 µM, 13d 0.004 µM per 100,000 cells; 6 and 12 h
# Source text: [Worded in the source for another target; used here, by the source, with some conditions changed.] (§3) The determination of proteins in a cell by Luminex xMAP technology is characterized by the presence of multiplex multiparametric analysis with the simultaneous use of a multiplex of antibodies with a fluorescent label and magnetic particles, thereby resulting in an increase in the sensitivity of the technique and expansion of the dynamic range, as well as an increase in detection accuracy. Luminex XMAP technology provides a simultaneous analysis of a sufficient number of different proteins in various types of biological fluids (plasma, serum, cerebrospinal fluid, follicular fluid, tissue lysate, etc.) and in cell supernatants. Consequently, multiplexing saves time/costs and ensures the same conditions for the measurements, which is essential for significance and statistical processing.
# (§4) Magnetic microspheres (stained inside with two fluorescent dyes) in combination with monoclonal antibodies against the analyzed analytes (the main intracellular kinases in this case) are incubated with the samples and standards; then, the samples/standards are incubated with biotinylated monoclonal antibodies against the analyzed analytes and, finally, with a solution of streptavidin–phycoerythrin. The Luminex technology identifies the different proteins present in each well and converts the mean fluorescence intensity (MFI) of each measured cytokine to pg/mL using software and standard curves. This approach is successfully applied in fundamental and clinical research. In this work, we analyzed various protein analytes that make up the phosphorylated and non-phosphorylated fractions of the main kinases in the signaling pathways: CREB, JNK, NFkB, p38, ERK1/2, Akt, p70S6K, STAT3, STAT5 proteins in six samples of lysates of Jurkat tumor cells by Luminex technology (MILLIPLEX® MAP 9-Plex Multi-Pathway 9-plex Magnetic Bead Kit).
# [10] = system: Chk1; assay: Luminex xMAP DNA Damage/Genotoxicity panel, phosphorylated Chk1; assay type: cell-based; conditions: Jurkat cells; 12a 0.006 µM, 13d 0.004 µM per 100,000 cells; 6 and 12 h
# Source text: [Worded in the source for another target; used here, by the source, with some conditions changed.] as §3, §4
# [11] = system: Jurkat cells; assay: Cell cycle analysis (Guava Cell Cycle Reagent); assay type: cell-based; conditions: IC50 concentration, 24 h, flow histogram
# Protocol: Our findings are consistent with the literature data that many ICs predominantly affect the G2 and S phases, reducing them.
# The incubation time of ionic liquids with cells was 24 h. […] It is listed because the picture prints the label with values. / The fit parameters printed in each histogram (RMS, Mean G1, Mean G2, G2/G1, CV G1, CV G2) were left out as statistics of the cell-cycle model.
# [12] = system: ATR kinase; assay: Luminex xMAP DNA Damage/Genotoxicity panel, ATR kinase content; assay type: cell-based; conditions: Jurkat cells; 12a 0.006 µM, 13d 0.004 µM per 100,000 cells; 6 and 12 h
# [13] = system: γH2AX; assay: Luminex xMAP DNA Damage/Genotoxicity panel, phosphorylated γH2AX; assay type: cell-based; conditions: Jurkat cells; first six hours of incubation
# Source text: as §3, with “processing. Simultaneous measurement of cytokines by bead multiplex analysis has certain similarities with ELISA, in particular the use of antibodies, but has a fundamental difference in using magnetic fluorescent beads coupled to antikinase monoclonal antibodies.” for “processing.”
# as §4
# Phosphorylation of histone H2AX at serine 139 (γH2AX) is an early stage in the cellular response to DNA damage, when the damage brings about formation of a double-strand break (DSB). γH2AX foci, considered as markers of DNA double-strand breaks, are easily detected by immunofluorescence microscopy and flow cytometry. The two main signaling pathways ATM/Chk2 and ATR/Chk1 respond to DNA damage and both lead to H2AX phosphorylation, but the ATR/Chk1 pathway causes γH2AX formation to a much lesser extent. The role of γH2AX in DNA repair is also discussed.
# Incubation time with the test compounds was 6 and 12 h. p < 0.001 (***).
# [14] = Homo sapiens, HEK293, HEK293 cells
# [15] = Homo sapiens, U-937, U937 cells
# [16] = Homo sapiens, HL-60, HL60 cells
# [17] = Homo sapiens, A2780, A2780 cells
smiles,measurement,setting,value
"C[n+]1ccn(CCCCOC(=O)[C@]23CCC(C)(C)CC2C2=CCC4[C@@]5(C)CC[C@H](O)C(C)(C)C5CC[C@@]4(C)[C@]2(C)CC3)c1 (stereo partly drawn) (as salt: bromide) [9b, 1-(4-{[(3β)-3-Hydroxyolean-12-en-28-oyl]oxy}butyl)-3-methylimidazolium bromide]",melting point,,148 to 150 °C
"CC(=O)O[C@H]1CC[C@@]2(C)C(CC[C@]3(C)C2CC=C2C4CC(C)(C)CC[C@]4(C(=O)OCCCCCCn4cc[n+](C)c4)CC[C@]23C)C1(C)C (stereo partly drawn) (as salt: bromide) [9d, 1-(6-{[(3β)-3-Acetyloxyolean-12-en-28-oyl]oxy}hexyl)-3-methylimidazolium bromide]",melting point,,151 to 153 °C
"C[n+]1ccn(CCCCCCOC(=O)[C@]23CCC(C)(C)CC2C2=CCC4[C@@]5(C)CC[C@H](O)C(C)(C)C5CC[C@@]4(C)[C@]2(C)CC3)c1.O=S(=O)([O-])c1ccccc1 (stereo partly drawn) [13e, 1-(6-{[(3β)-3-Hydroxyolean-12-en-28-oyl]oxy}hexyl)-3-methylimidazolium Benzenesulfonate]",Apoptosis (%) Early,[1],6.26%
same,Apoptosis (%) Late,[1],3.12%
same,Apoptosis (%) Necrosis,[1],1.52%
same,Mito-Damage (%),[2],7.71%
same,IC50,[3]; HEK293 cells,46 ± 4 nM
same,IC50,[4]; K562 cells,17 ± 1 nM
same,IC50,[5]; U937 cells,14 ± 1 nM
same,IC50,[6],11 ± 1 nM
same,IC50,[7]; HL60 cells,4 ± 1 nM
same,IC50,[8]; A2780 cells,24 ± 2 nM
"C=C(C)[C@@H]1CC[C@]2(C(=O)[O-])CC[C@]3(C)[C@H](CC[C@@H]4[C@@]5(C)CC[C@H](O)C(C)(C)[C@@H]5CC[C@]43C)[C@@H]12.CCn1cc[n+](C)c1 [17a, 1-Ethyl-3-methylimidazolium (3β)-3-hydroxyolup-20(29)-en28-oylate]",Apoptosis (%) Early,[1],2.91%
same,Apoptosis (%) Late,[1],1.38%
same,Apoptosis (%) Necrosis,[1],3.30%
same,Mito-Damage (%),[2],8.84%
same,IC50,[3]; HEK293 cells,182 ± 17 nM
same,IC50,[4]; K562 cells,41 ± 2 nM
same,IC50,[5]; U937 cells,34 ± 2 nM
same,IC50,[6],18 ± 1 nM
same,IC50,[7]; HL60 cells,17 ± 2 nM
same,IC50,[8]; A2780 cells,81 ± 8 nM
N#CC(C#N)=NNc1cccc(Cl)c1 [CCCP],content of phosphorylated checkpoint kinase Chk2,[9],significantly decreases
same,content of phosphorylated checkpoint kinase Chk1,[10],significantly decreases
"N.N.[Cl][Pt][Cl] [cisplatin, reference compound]",Freq Sub-G1 (hypodiploid cell population),[11],32.27%
"CC(=O)O[C@H]1CC[C@@]2(C)C(CC[C@]3(C)C2CC=C2C4CC(C)(C)CC[C@]4(C(=O)OCCCCCCOC(=O)c4nccn4C)CC[C@]23C)C1(C)C (stereo partly drawn) [compound 3, 6-{[(1-Methyl-1H-imidazol-2-yl)carbonyl]oxy}hexyl (3β)-3-(acetyloxy)olean-12-en-28-oate]",melting point,,134 to 136 °C
same,IC50,[3]; [14],> 4000 nM
same,IC50,"[4]; Homo sapiens, K562, K562 cells",> 4000 nM
same,IC50,[5]; [15],> 4000 nM
same,IC50,"[6]; Homo sapiens, Jurkat",> 4000 nM
same,IC50,[7]; [16],> 4000 nM
same,IC50,[8]; [17],> 4000 nM
"CC(=O)O[C@H]1CC[C@@]2(C)C(CC[C@]3(C)C2CC=C2C4CC(C)(C)CC[C@]4(C(=O)OCCCCCCOC(=O)c4cncn4C)CC[C@]23C)C1(C)C (stereo partly drawn) [compound 4, 6-{[(1-Methyl-1H-imidazol-5-yl)carbonyl]oxy}hexyl (3β)-3-(acetyloxy)olean-12-en-28-oate]",melting point,,123 to 125 °C
same,IC50,[3]; [14],> 4000 nM
same,IC50,"[4]; Homo sapiens, K562, K562 cells",> 4000 nM
same,IC50,[5]; [15],> 4000 nM
same,IC50,"[6]; Homo sapiens, Jurkat",> 4000 nM
same,IC50,[7]; [16],> 4000 nM
same,IC50,[8]; [17],> 4000 nM
"CO[C@H]1C[C@@H]2CC[C@@H](C)[C@@](O)(O2)C(=O)C(=O)N2CCCC[C@H]2C(=O)O[C@H]([C@H](C)C[C@@H]2CC[C@@H](O)[C@H](OC)C2)CC(=O)[C@H](C)/C=C(\C)[C@@H](O)[C@@H](OC)C(=O)[C@H](C)C[C@H](C)/C=C/C=C/C=C/1C [rapamycin, reference compound]",content of phosphorylated checkpoint kinase Chk2,[9],significantly decreases
same,content of phosphorylated checkpoint kinase Chk1,[10],significantly decreases
same,level of ATR kinase,[12],elevated levels
same,increase in the phosphorylated γH2AX histone fraction,[13],~9000 times
CN[C@@H]1C[C@H]2O[C@@](C)([C@@H]1OC)n1c3ccccc3c3c4c(c5c6ccccc6n2c5c31)C(=O)NC4 [staurosporine],content of phosphorylated checkpoint kinase Chk2,[9],significantly decreases
same,content of phosphorylated checkpoint kinase Chk1,[10],significantly decreases
same,increase in the phosphorylated γH2AX histone fraction,[13],~9000 times
CC(C)[C@@H]1NC(=O)[C@H](C)OC(=O)[C@@H](C(C)C)NC(=O)[C@@H](C(C)C)OC(=O)[C@H](C(C)C)NC(=O)[C@H](C)OC(=O)[C@@H](C(C)C)NC(=O)[C@@H](C(C)C)OC(=O)[C@H](C(C)C)NC(=O)[C@H](C)OC(=O)[C@@H](C(C)C)NC(=O)[C@@H](C(C)C)OC1=O [valinomycin],content of phosphorylated checkpoint kinase Chk2,[9],significantly decreases
same,content of phosphorylated checkpoint kinase Chk1,[10],significantly decreases
same,level of ATR kinase,[12],elevated levels
